Experimental data: US20220073941A1, “HERBICIDE-RESISTANT CAMELINA SATIVA PLANTS, AND VARIANT CAMELINA ACETOHYDROXYACID SYNTHASE POLYPEPTIDES” (priority 2019, published 2022)
Several values for one entry are separate records, joined by “and”; a condition that tells them apart may be missing. Identical values can stand only once.

Tests used:
[1] = system: 12CS0366; assay: Greenhouse dose-response to thifensulfuron-methyl, plant height and dry biomass (Example 6); assay type: in vivo, Camelina sativa
[2] = system: susceptible controls SRS 934, 10CS0048; assay: Phenotype scoring (resistant/susceptible) 7 d after 2.5 g ai/ha thifensulfuron-methyl (Example 5); assay type: in vivo, Camelina sativa; settings: 7 d after application
Source text: (§1) At a thifensulfuron-methyl application rate of 2.5 g ai/ha, plants from parental, F2, BC1F1, and BC4F2 populations could easily be scored into one of two discrete phenotypic classes (R, resistant or S, susceptible) 7 d after herbicide application.

[3] = system: resistant lines 12CS0365, 12CS0366, 13CS0786; assay: as above; assay type: in vivo, Camelina sativa
Source text: as §1

[4] = system: 12CS0365; assay: Greenhouse dose-response to thifensulfuron-methyl, plant height and dry biomass (Example 6); assay type: in vivo, Camelina sativa
[5] = system: AHAS, enzyme extract of SRS 934; assay: AHAS product feedback inhibition assay (leucine, isoleucine, valine); assay type: biochemical, Camelina sativa; settings: for Absorbance at 530 nm (AHAS product feedback inhibition assay, raw data), Avg: average of replicates per experiment; for Absorbance at 530 nm (AHAS product feedback inhibition assay, raw data): individual replicates, experiments 1-3
Description: (§2) Briefly, for each of the three comparators, leaf and stem (petiole) material was bulk-harvested at the 3-4 leaf stage from at least 30 plantlets, snap-frozen in liquid nitrogen, and stored at −80° C. The AHAS in vitro assay was conducted according to the method of Singh et al (1988), with modifications by Yu (2010) and Rustgi (2014). For each comparator, 4 grams of frozen material were ground to a fine powder with a mortar and pestle in liquid nitrogen and homogenized in 1 volume of cold extraction buffer containing 100 mM potassium phosphate buffer (pH7.5), 10 mM sodium pyruvate, 5 mM MgCl2, 100 μM flavin adenine dinucleotide (FAD), and 10% glycerol. Four 2-mL microcentrifuge tubes were used for each comparator. The homogenate was centrifuged at 13,000 rpm for 10 min at 4° C., supernatant collected and re-centrifuged for an additional 10 minutes under the same conditions. For each tube, 1 mL of supernatant was pipetted into a new 2-mL microcentrifuge tube, and protein was precipitated by the addition of 1 mL of saturated ammonium sulfate. The solution was mixed well by vortex and allowed to stand on ice for 20 minutes, then centrifuged at 13,000 rpm at 4° C. The protein pellet was resuspended in 300 μL of reaction buffer containing 50 mM potassium phosphate buffer (pH7.5), 100 mM sodium pyruvate, 10 mM MgCl2, 1 mM EDTA, 10 μM FAD, 100 mM NaCl, and 1 mM thiamine pyrophosphate. Tubes of each comparator were combined, mixed well, kept on ice and immediately used in the AHAS activity and feedback inhibition assays.
(§3) Total protein concentration of the crude extract was determined by the Bradford method (Bradford, 1976). All assays were conducted using 300 μg of total protein each.
(§4) The feedback inhibition assay was performed by combining equal amounts of extract and amino acids leucine, isoleucine, or valine, respectively, in concentrations of 0.1 mM, 1 mM, 10 mM and 100 mM, according to Yu et al. (2010). The reaction mixture contained 50 μL enzyme extract and 50 μL 100 mM sodium pyruvate and inhibitor amino acid. The reaction was incubated at 37° C. for 60 minutes, then stopped and acetolactate converted to acetoin with the addition of 20 μL of 6 N H2SO4 and incubated at 60° C. for 15 minutes. A separate background “blank” was included for each sample group by adding 20 μL of 6 N H2SO4 prior to the addition of the enzyme extracts. Then, 95 μL of 0.55% w/v creatine solution and 95 μL of α-naphthol solution (5.5% w/v in 5 N NaOH) were added and the mixture incubated at 60° C. for a further 15 minutes. After cooling to room temperature for 15 minutes, enzyme activity was determined colorimetrically by reading the absorbance at 530 nm. Three independent experiments were conducted. Experiment 1 and 2 each contained 2 technical replicates, while experiment 3 included 3 technical replicates.

[6] = system: AHAS, enzyme extract of MIDAS™; assay: as above; assay type: biochemical, Camelina sativa; settings: for Absorbance at 530 nm (AHAS product feedback inhibition assay, raw data), Avg: average of replicates per experiment; for Absorbance at 530 nm (AHAS product feedback inhibition assay, raw data): individual replicates, experiments 1-3
Description: as §2, §3, §4

[7] = system: AHAS, enzyme extract of 14CS0851-01-14; assay: as above; assay type: biochemical, Camelina sativa; settings: for Absorbance at 530 nm (AHAS product feedback inhibition assay, raw data), Avg: average of replicates per experiment; for Absorbance at 530 nm (AHAS product feedback inhibition assay, raw data): individual replicates, experiments 1-3
Description: as §2, §3, §4

[8] = 1 mM amino acid final concentration
[9] = 10 mM amino acid final concentration
[10] = 100 mM amino acid final concentration

Q: With `COC(=O)c1sccc1S(=O)(=O)NC(=O)Nc1nc(C)nc(OC)n1` [thifensulfuron-methyl] as the molecule, how does the “Ratio of ED50 biomass values, estimate” value ([1]; 12CS0366/13CS0786) read?
A: 0.0968

Q: And the “Ratio of ED50 height values, estimate” value ([1]; 12CS0366/13CS0786)?
A: 0.20

Q: What about the “Ratio of ED50 biomass values, estimate” value ([1]; 12CS0366/SRS 934) of the same molecule?
A: 99.70

Q: What about the “Ratio of ED50 height values, estimate” value ([1]; 12CS0366/SRS 934) of the same molecule?
A: 36.9

Q: What about the “phenotype after herbicide application” value [2] of the same molecule?
A: either killed or greatly damaged

Q: And the “phenotype after herbicide application” value [3]?
A: consistently produced a resistant phenotype

Q: What about the “Ratio of ED50 biomass values, estimate” value ([4]; 12CS0365/12CS0366) of the same molecule?
A: 0.08

Q: And the “Ratio of ED50 height values, estimate” value ([4]; 12CS0365/12CS0366)?
A: 0.35

Q: And the “Ratio of ED50 biomass values, estimate” value ([4]; 12CS0365/13CS0786)?
A: 0.008

Q: And the “Ratio of ED50 height values, estimate” value ([4]; 12CS0365/13CS0786)?
A: 0.02

Q: What about the “Ratio of ED50 biomass values, estimate” value ([4]; 12CS0365/SRS 934) of the same molecule?
A: 7.93

Q: What about the “Ratio of ED50 height values, estimate” value ([4]; 12CS0365/SRS 934) of the same molecule?
A: 12.72

Q: With `CC(C)[C@H](N)C(=O)O` [valine] as the molecule, how does the “Absorbance at 530 nm (AHAS product feedback inhibition assay, raw data), Avg” value [5, 8] read?
A: 0.231 and 0.181 and 0.094

Q: And the “Absorbance at 530 nm (AHAS product feedback inhibition assay, raw data)” value [5, 8]?
A: 0.236 and 0.226 and 0.198 and 0.163 and 0.086 and 0.098 and 0.100

Q: And the “Absorbance at 530 nm (AHAS product feedback inhibition assay, raw data), Avg” value [5, 9]?
A: 0.184 and 0.179 and 0.093

Q: And the “Absorbance at 530 nm (AHAS product feedback inhibition assay, raw data)” value [5, 9]?
A: 0.186 and 0.182 and 0.206 and 0.151 and 0.091 (2×) and 0.096

Q: What about the “Absorbance at 530 nm (AHAS product feedback inhibition assay, raw data), Avg” value [5, 10] of the same molecule?
A: 0.1625 and 0.142 and 0.070

Q: And the “Absorbance at 530 nm (AHAS product feedback inhibition assay, raw data)” value [5, 10]?
A: 0.168 and 0.157 and 0.184 and 0.100 and 0.071 and 0.072 and 0.067

Q: And the “Absorbance at 530 nm (AHAS product feedback inhibition assay, raw data), Avg” value [6, 8]?
A: 0.2475 and 0.203 and 0.117

Q: What about the “Absorbance at 530 nm (AHAS product feedback inhibition assay, raw data)” value [6, 8] of the same molecule?
A: 0.252 and 0.243 and 0.239 and 0.166 and 0.115 and 0.116 and 0.122

Q: And the “Absorbance at 530 nm (AHAS product feedback inhibition assay, raw data), Avg” value [6, 9]?
A: 0.214 and 0.191 and 0.112

Q: And the “Absorbance at 530 nm (AHAS product feedback inhibition assay, raw data)” value [6, 9]?
A: 0.205 and 0.223 and 0.217 and 0.113 and 0.110 and 0.112

Q: What about the “Absorbance at 530 nm (AHAS product feedback inhibition assay, raw data), Avg” value [6, 10] of the same molecule?
A: 0.1815 and 0.166 and 0.089

Q: What about the “Absorbance at 530 nm (AHAS product feedback inhibition assay, raw data)” value [6, 10] of the same molecule?
A: 0.174 and 0.189 and 0.171 and 0.161 and 0.084 and 0.091 and 0.092

Q: And the “Absorbance at 530 nm (AHAS product feedback inhibition assay, raw data), Avg” value [7, 8]?
A: 0.213 and 0.207 and 0.080

Q: What about the “Absorbance at 530 nm (AHAS product feedback inhibition assay, raw data)” value [7, 8] of the same molecule?
A: 0.216 and 0.21 and 0.227 and 0.187 and 0.079 and 0.080 and 0.082

Q: What about the “Absorbance at 530 nm (AHAS product feedback inhibition assay, raw data), Avg” value [7, 9] of the same molecule?
A: 0.196 and 0.178 and 0.073

Q: And the “Absorbance at 530 nm (AHAS product feedback inhibition assay, raw data)” value [7, 9]?
A: 0.203 and 0.189 and 0.190 and 0.166 and 0.057 and 0.84 and 0.80

Q: And the “Absorbance at 530 nm (AHAS product feedback inhibition assay, raw data), Avg” value [7, 10]?
A: 0.1485 and 0.155 and 0.057

Q: And the “Absorbance at 530 nm (AHAS product feedback inhibition assay, raw data)” value [7, 10]?
A: 0.155 and 0.142 and 0.176 and 0.133 and 0.054 and 0.061 and 0.056

Q: What about the “sensitivity of AHAS to feedback inhibition, comparison of enzyme extracts” value ([7]; extracts of 14CS0851-01-14, SRS 934 and MIDAS™ compared, 1 mM, 10 mM, 100 mM) of the same molecule?
A: no significant difference
